From ChEMBL document CHEMBL3046602, “Chiral 1,5-disubstituted 1,3,5-hexahydrotriazine-2-N-nitroimine analogues as novel potent neonicotinoids: Synthesis, insecticidal evaluation and molecular docking studies” (2011)

Key:
Type in all cases: functional
Aphis medicaginis [1] = test: Insecticidal activity against Aphis medicaginis assessed as insect mortality at 10 mg/L measured after 72 hr post compound treatment
Aphis medicaginis [2] = test: Insecticidal activity against Aphis medicaginis assessed as insect mortality at 100 mg/L measured after 72 hr post compound treatment
Aphis medicaginis [3] = test: Insecticidal activity against Aphis medicaginis assessed as insect mortality at 500 mg/L measured after 72 hr post compound treatment

Structure (SMILES)	mortality at 10 µg/mL (Aphis medicaginis [1]) [%]	mortality at 100 µg/mL (Aphis medicaginis [2]) [%]	mortality at 500 µg/mL (Aphis medicaginis [3]) [%]
CCOC(=O)[C@H](C)N1CN/C(=N\[N+](=O)[O-])N(Cc2cnc(Cl)s2)C1	≥ 60	≥ 60	≥ 80
CCOC(=O)[C@H](CCSC)N1CN/C(=N\[N+](=O)[O-])N(Cc2cnc(Cl)s2)C1	≥ 50	≥ 60	≥ 90
CCOC(=O)[C@H](CC(C)C)N1CN/C(=N\[N+](=O)[O-])N(Cc2ccc(Cl)nc2)C1	≥ 70	≥ 80	100
CCOC(=O)CN1CN/C(=N\[N+](=O)[O-])N(Cc2ccc(Cl)nc2)C1	≥ 60	≥ 70	≥ 80
CN1COCN(Cc2cnc(Cl)s2)/C1=N\[N+](=O)[O-] [THIAMETHOXAM]	100	100	100
CCOC(=O)[C@H]([C@@H](C)CC)N1CN/C(=N\[N+](=O)[O-])N(Cc2ccc(Cl)nc2)C1	≥ 60	≥ 80	≥ 80
CCOC(=O)CCCN1CN/C(=N\[N+](=O)[O-])N(Cc2ccc(Cl)nc2)C1	≥ 80	100	100
CCOC(=O)[C@H](Cc1ccccc1)N1CN/C(=N\[N+](=O)[O-])N(Cc2ccc(Cl)nc2)C1	≥ 50	≥ 60	≥ 70
CCOC(=O)CCN1CN/C(=N\[N+](=O)[O-])N(Cc2ccc(Cl)nc2)C1	≥ 70	≥ 80	100
CCOC(=O)[C@@H](c1ccc(Cl)cc1)N1CN/C(=N\[N+](=O)[O-])N(Cc2cnc(Cl)s2)C1	≥ 90	100	100
CCOC(=O)C[C@@H](C(=O)OCC)N1CN/C(=N\[N+](=O)[O-])N(Cc2ccc(Cl)nc2)C1	≥ 60	≥ 70	≥ 90
CCOC(=O)[C@H](C(C)C)N1CN/C(=N\[N+](=O)[O-])N(Cc2cnc(Cl)s2)C1	≥ 50	≥ 60	≥ 80
CCOC(=O)CN1CN/C(=N\[N+](=O)[O-])N(Cc2cnc(Cl)s2)C1	≥ 60	≥ 70	≥ 80
CCOC(=O)[C@H](Cc1ccccc1)N1CN/C(=N\[N+](=O)[O-])N(Cc2cnc(Cl)s2)C1	–	≥ 60	≥ 70
CCOC(=O)[C@H](CC(C)C)N1CN/C(=N\[N+](=O)[O-])N(Cc2cnc(Cl)s2)C1	≥ 80	100	100
CCOC(=O)C[C@@H](C(=O)OCC)N1CN/C(=N\[N+](=O)[O-])N(Cc2cnc(Cl)s2)C1	≥ 70	≥ 80	≥ 90
CCOC(=O)[C@H]([C@@H](C)CC)N1CN/C(=N\[N+](=O)[O-])N(Cc2cnc(Cl)s2)C1	≥ 50	≥ 60	≥ 80
CCOC(=O)[C@H](C)N1CN/C(=N\[N+](=O)[O-])N(Cc2ccc(Cl)nc2)C1	≥ 50	≥ 60	≥ 70
CCOC(=O)[C@H](C(C)C)N1CN/C(=N\[N+](=O)[O-])N(Cc2ccc(Cl)nc2)C1	≥ 60	≥ 70	≥ 80
CCOC(=O)CC(CC(=O)OCC)N1CN/C(=N\[N+](=O)[O-])N(Cc2cnc(Cl)s2)C1	≥ 60	≥ 70	≥ 90
CCOC(=O)CC(CC(=O)OCC)N1CN/C(=N\[N+](=O)[O-])N(Cc2ccc(Cl)nc2)C1	≥ 60	≥ 70	100
O=[N+]([O-])/N=C1\NCCN1Cc1ccc(Cl)nc1 [IMIDACLOPRID]	100	100	100
CCOC(=O)CCCN1CN/C(=N\[N+](=O)[O-])N(Cc2cnc(Cl)s2)C1	≥ 80	100	100
CCOC(=O)[C@H](CCSC)N1CN/C(=N\[N+](=O)[O-])N(Cc2ccc(Cl)nc2)C1	–	≥ 60	≥ 70
CCOC(=O)CCN1CN/C(=N\[N+](=O)[O-])N(Cc2cnc(Cl)s2)C1	≥ 60	≥ 70	100
CCOC(=O)[C@@H](c1ccc(Cl)cc1)N1CN/C(=N\[N+](=O)[O-])N(Cc2ccc(Cl)nc2)C1	≥ 50	≥ 60	≥ 70
